Results taken from patent US20240252463A1, “METHODS OF TREATING FIBROTIC PATHOLOGIES” (Mayo Foundation for Medical Education and Research, priority 2018, published 2024).

Columns and labels:
YAP/TAZ = YAP/TAZ nuclear localization in IMR-90 and other mesenchymal cells (cardiac, dermal fibroblasts, hepatic stellate cells); type: cell-based, human
Procedure: FIGS. 2A-2E Dopamine Receptor D1 agonism blocks YAP/TAZ nuclear localization. 2a. Selective agonists of dopamine receptor D1 with varying efficacy inhibit YAP/TAZ nuclear localization; this effect can be overcome by treatment with a DRD1 receptor antagonist (SCH 39166, 3 μM), (Dihydrexidine, 10 μM). IMR-90 cells treated 2 hours prior to fixation. N=4 (****p<0.0001 vs. 0.1% DMSO vehicle control). Scale bar represents 100 μm. 2b. Consistent with DRD1 expression, DHX inhibits YAP/TAZ only in fibroblasts (IPF-FBs) but not in epithelial (NHEpCs) or endothelial (NHMVECs) cells. N=4 (****p<0.0001 vs. 0.1% DMSO vehicle control) 2c. YAP/TAZ localization is induced through multiple ligands which stimulate receptors coupled to Galphαi/q/12, endothelin 1 (ET-1: 100 nM), lysophosphatidic acid (LPA: 10 μM), and serotonin (5-HT: 1 μM). In each case DHX treatment (10 μM) can reverse this effect on YAP/TAZ. IMR-90 cells plated densely onto plastic cell culture plates for 24 hours in media containing 0.1% FBS, treated for 2 hours prior to fixation. N=4 (****p<0.0001 vs. 0.1% DMSO vehicle control), (++++p<0.0001 vs. the respective stimulated agonist ET-1, LPA, or 5-HT). Scale bar represents 100 μm. 2d. cAMP measured in IPF patient-derived fibroblasts treated for 20 minutes with DHX (10 μM)+/−SCH 39166 (3 μM). N=3 (**p<0.01 vs. 0.1% DMSO vehicle control). 2e. Phosphorylation of YAP by Rho-kinase inhibitor Y27632 (20 μM), direct cAMP stimulator Forskolin (10 μM), or DHX (10 μM). IMR-90 cells cultured for 24 hours in media containing 0.1% FBS, treated 2 hours prior to fixation. N=3 (***p<0.001 vs. 0.1% DMSO vehicle control).
FIGS. 6A-6C DHX inhibits YAP/TAZ localization in fibroblasts from multiple tissues. 6a. Mesenchymal cells derived from lung (IMR-90 and IPF-FBs) hepatic stellate cells (HSC), human adult cardiac fibroblasts, (HACF) and human dermal fibroblasts (HDF) were plated densely (Confluent) or sparsely (Control and all remaining conditions) onto plastic cell culture plates for 24 hours in media containing 0.1% FBS, treated for 2 hours with Rho kinase inhibitor Y27632, adenylate cyclase activator forskolin and DHX. N=4, Cells that were positive for nuclear YAP/TAZ were quantified by automated image analysis. 6b. Time course for DHX inhibition of YAP/TAZ nuclear localization. IMR-90 cells, N=3 (***p<0.001 vs. 0.1% DMSO vehicle control). 6c. […] N=3.
ImmunofluorescenceMicroscopy: Cells were plated into 96 well plates (Corning 3603) in their specific growth media and allowed to attach (8 hours). Media was then exchanged for the indicated conditions for each experiment. Cells were fixed in 3.7% formalin (Sigma-Aldrich), permeabilized in 0.25% Triton X-100 (Sigma-Aldrich) and then blocked with 1% BSA for 1 h. Cells or tissue sections were incubated overnight with mouse monoclonal antibody against αSMA (Sigma-Aldrich F3777), and/or a rabbit monoclonal antibody against YAP/TAZ (Cell Signaling D24E4) diluted 1:200 in PBS with 1% BSA. Cells were then washed and exposed to flourescence-conjugated secondary antibodies (Invitrogen) diluted 1:1000 and DAPI (Thermo Fisher Scientific). Images were taken with a Cytation5 (BioTek) microscope. For scoring αSMA positive cells (FIG. 3b), an observer blinded to the treatment conditions counted αSMA-positive cells using a visual threshold for bright fibrous staining; a minimum of 200 cells was counted for each condition. YAP/TAZ localization was quantified (FIG. 2, 6, 8) using Gen5 (Biotek) software. Images were taken at 4× magnification of both DAPI and YAP/TAZ staining. […] Quantification of double positive (YAP/TAZ and αSMA) cells from lung tissue sections (FIG. 4d) was performed similarly; however separate thresholds were established for both YAP/TAZ and αSMA. A minimum of 4000 cells was quantified for each mouse.

[1] = system: bile duct ligation mediated hepatic fibrosis; assay: Bile Duct Ligation model of liver fibrosis; type: in vivo, mouse; details: BDL mice, DHX 5 mg/kg i.p. daily from Day 7 for 14 days
Procedure: Bile Duct Ligation: BDL was performed as previously described. Briefly, 8-10 weak old female C57BL/6N underwent either BDL or sham surgery. Mice were anesthetized on Day 0 following IACUC protocol, and the bile duct was ligated using sterile 3/0 silk ligatures. Sham surgery was performed by passing a silk ligature under the bile duct. Starting on Day 7, DHX (5 mg/kg) or vehicle control was administered everyday intraperitoneally (i.p.) for 14 days. Following the final DHX treatment, mice were sacrificed and the livers harvested for analysis of fibrosis.
Histological Scoring: Five μm thick sections were cut from Paraffin embedded lung tissues, and the sections were stained either with hematoxylin and eosin (H&E) or with Masson's Trichrome stain kit (Abcam). […] The severity of interstitial and peribronchiolar lung immature and mature fibrosis was estimated on a numerical scale according to Ashcroft et al. For scoring purposes, all H&E stained slides were systematically scanned at 100× magnification and successive 100× fields were scored. […] The predominant score for each field was recorded. The mean of all scores was calculated for each case. Liver trichrome stained sections were computationally measured using Image J software. […]
Hydroxyproline: Hydroxyproline content was measured using a hydroxyproline assay kit (Biovision) according to the manufacture's instruction with slight modification. […]

Oc1cc2c(cc1O)[C@H]1c3ccccc3CN[C@@H]1CC2 (racemic) [Dihydrexidine, dihydrexidine]
potency of inhibition of YAP/TAZ nuclear localization, normal lung fibroblasts vs IPF-derived (YAP/TAZ; FIG. 6c): equally potent
YAP/TAZ nuclear localization across a panel of mesenchymal cell types (YAP/TAZ; cardiac and dermal fibroblasts and hepatic stellate cells (FIG. 6)): effective at inhibiting YAP/TAZ nuclear localization
YAP/TAZ nuclear localization induced by endothelin-1, lysophosphatidic acid and serotonin (YAP/TAZ; confluent IMR-90, DHX 10 μM, 2 hours (FIG. 2c)): blocked nuclear localization of YAP/TAZ
YAP/TAZ nuclear localization (YAP/TAZ; fibroblasts on stiff matrix (plastic), IMR-90 cells treated 2 hours (FIG. 2a)): reduced nuclear localization of YAP/TAZ
collagen deposition (hydroxyproline) [1]: trend toward reduced collagen deposition
histological fibrosis (trichrome) [1]: significantly improved histological fibrosis
